Source: patent US10544156B2, “Hemi-synthetic trilobine analogs for use as a drug” (PIERRE FABRE MEDICAMENT, priority 2015, dated 2020)
Like-named read-outs stand apart in the source and are kept apart here.

Biological target: T1, human C-terminal DNMT3A (623-908a.a.) (Homo sapiens, UniProt Q9Y6K1)
T1 construct: The human C-terminal DNMT3A (623-908a.a.); made in house
Assay: hDNMT3A assay (restriction-based fluorescence assay)
Type: biochemical
Conditions: for inhibition at 10 µM: read-out: hDNMT 3A inhibition, Inhibition (%) 10 μM; for inhibition at 32 µM: read-out: hDNMT 3A inhibition, Inhibition (%) 32 μM
Text: hDNMT3A enzyme inhibition was adapted from the restriction-based fluorescence assay protocol as described in the literature (Ceccaldi et al. Chem Bio Chem 2011, 12, 1337-1345). Briefly, a 5′-labelled biotin oligonucleotide is hybridized to its complementary strand labelled with 6-carboxyfluorescein at the 3′-end into a 384 well microplate (black Optiplates; Perkin Elmer) pre-coated with avidin. The duplex contains a unique CpG site overlapping with a restriction site of a methylation sensitive restriction enzyme. The human C-terminal DNMT3A (623-908a.a.), produced as described in (Gros et al. Nucl. Acids Res. 2013, 41(19):e185), was added in each well (200 ng/well) and mixed with the chemical compounds at desired concentrations and freshly prepared SAM (20 μM final concentration) to start the reaction in a total volume of 50 μL. After 1 hour incubation at 37° C. each well were washed three times with PBS, Tween-20 0.05%, NaCl (500 mM) and three more times with PBST. Specific fluorescent signals were detected with the methylation-sensitive restriction enzyme HpyCH4IV (NEB) as described and measured on a Perkin Elmer Envision detector. The percentage of inhibition is reported. The formula used to calculate the percentage of inhibition is [(X−Y)/X]×100, where X is the signal determined in the absence of the inhibitor and Y is the signal obtained in the presence of the inhibitor. The concentration at which 50% of efficacy of inhibition is observed (EC50) was determined by analysis of a concentration range of the tested compound in triplicates. The non-linear regression fittings with sigmoidal dose-response (variable slope) were performed with GraphPad Prism 4.03 (GraphPad Software).

[1] = concentration at which 50% of efficacy of inhibition is observed, read-out: EC50 (μM), hDNMT 3A inhibition
[2] = interval line below the EC50 of the same compound, read-out: EC50 (μM), range given

T1 sequence (Q9Y6K1 627-912 limits assumed): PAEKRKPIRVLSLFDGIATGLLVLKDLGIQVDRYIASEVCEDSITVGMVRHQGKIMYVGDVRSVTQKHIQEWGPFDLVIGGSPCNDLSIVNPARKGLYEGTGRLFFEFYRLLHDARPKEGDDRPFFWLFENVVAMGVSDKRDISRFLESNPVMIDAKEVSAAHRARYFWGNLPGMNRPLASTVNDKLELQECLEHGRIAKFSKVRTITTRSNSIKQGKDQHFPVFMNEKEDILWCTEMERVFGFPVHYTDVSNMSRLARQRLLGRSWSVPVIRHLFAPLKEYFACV

| SMILES | EC50 [1] | EC50 [2] | inhibition at 10 µM | inhibition at 32 µM |
| --- | --- | --- | --- | --- |
| CCN(CC)CCCNC(=O)N1CCc2cc(OC)c3c4c2[C@@H]1Cc1ccc(cc1)Oc1cc(ccc1OC)C[C@H]1c2cc(c(cc2CCN1C)O3)O4 [Product 49] | 6.1 µM | 3.72 to 10 µM | 60% | 75% |
| C=CC(=O)N1CCc2cc(OC)c3c4c2C1Cc1ccc(cc1)Oc1cc(ccc1OC)C[C@H]1c2cc(c(cc2CCN1C)O3)O4 (stereo partly shown) [Product 31] | – | – | 43% | 79% |
| COc1ccc2cc1Oc1ccc(cc1)CC1c3c(cc(OC)c4c3Oc3cc5c(cc3O4)CCN(C)[C@H]5C2)CCN1C=O (stereo partly shown) [Product 10] | – | – | 17% | 72% |
| COc1ccc2cc1Oc1ccc(cc1)C[C@H]1c3c(cc(OC)c4c3Oc3cc5c(cc3O4)CCN(C)[C@H]5C2)CCN1C(=O)OCCCn1cnc2c(N)ncnc21 [Product 19] | – | – | 67% | 71% |
| COc1ccc2cc1Oc1ccc(cc1)C[C@H]1c3c(cc(OC)c4c3Oc3cc5c(cc3O4)CCN(CC#N)[C@H]5C2)CCN1C [Product 20] | – | – | 50% | 66% |
| COc1cc2c3c4c1Oc1cc5c(cc1O4)[C@H](Cc1ccc(OS(=O)(=O)C(F)(F)F)c(c1)Oc1ccc(cc1)C[C@@H]3N(C)CC2)N(C)CC5 [Product 54] | – | – | 0% | 32% |
| COc1ccc2cc1Oc1ccc(cc1)C[C@H]1c3c(cc(OC)c4c3Oc3cc5c(cc3O4)CCN(C)[C@H]5C2)CCN1S(C)(=O)=O [Product 13] | – | – | 39% | 45% |
| CNC(=O)N1CCc2cc(OC)c3c4c2[C@@H]1Cc1ccc(cc1)Oc1cc(ccc1OC)C[C@@H]1NCCc2cc(c(cc21)O4)O3 [Product 51] | – | – | 2% | 69% |
| COc1ccc2cc1Oc1ccc(cc1)CC1c3c(cc(OC)c4c3Oc3cc5c(cc3O4)CCN(C)[C@H]5C2)CCN1C(=O)/C=C/CN(C)C (stereo partly shown) [Product 33] | – | – | 32% | 87% |
| COc1ccc2cc1Oc1ccc(cc1)C[C@H]1c3c(cc(OC)c4c3Oc3cc5c(cc3O4)CCN(C)[C@H]5C2)CCN1CCCCn1cnc2c(N)ncnc21 [Product 27] | – | – | 21% | 67% |
| COc1ccc2cc1Oc1ccc(cc1)C[C@H]1c3c(cc(OC)c4c3Oc3cc5c(cc3O4)CCN(CCCCn3cnc4c(N)ncnc43)[C@H]5C2)CCN1C [Product 25] | – | – | 46% | 72% |
| CNC(=S)N1CCc2cc3c4cc2[C@@H]1Cc1ccc(OC)c(c1)Oc1ccc(cc1)C[C@H]1c2c(cc(OC)c(c2O4)O3)CCN1C(=S)NC [Product 47] | – | – | 10% | 40% |
| COc1ccc2cc1Oc1ccc(cc1)C[C@H]1c3c(cc(OC)c4c3Oc3cc5c(cc3O4)CCN(C)[C@H]5C2)CCN1C(N)=O [Product 11] | – | – | 43% | 77% |
| COc1ccc2cc1Oc1ccc(cc1)CC1c3c(cc(OC)c4c3Oc3cc5c(cc3O4)CCN(C)[C@H]5C2)CCN1C(=O)CCCl (stereo partly shown) [Product 32] | 5.34 to 6.87 µM | – | 57% | 82% |
| COc1ccc2cc1Oc1ccc(cc1)C[C@H]1c3c(cc(OC)c4c3Oc3cc5c(cc3O4)CCN(CCCn3cnc4c(N)ncnc43)[C@H]5C2)CCN1C [Product 24] | – | – | 42% | 77% |
| CNC(=O)N1CCc2cc3c4cc2[C@@H]1Cc1ccc(OC)c(c1)Oc1ccc(cc1)C[C@H]1c2c(cc(OC)c(c2O4)O3)CCN1C [Product 45] | – | – | 31% | 73% |
| COc1ccc2cc1Oc1ccc(cc1)C[C@H]1c3c(cc(OC)c4c3Oc3cc5c(cc3O4)CCN(CC#N)[C@H]5C2)CCN1CC#N [Product 21] | – | – | 32% | 82% |
| CNC(=O)N1CCc2cc3c4cc2[C@@H]1Cc1ccc(OC)c(c1)Oc1ccc(cc1)C[C@H]1c2c(cc(OC)c(c2O4)O3)CCN1C(=O)NC [Product 43] | – | – | 24% | 49% |
| CNC(=S)N1CCc2cc(OC)c3c4c2[C@@H]1Cc1ccc(cc1)Oc1cc(ccc1OC)C[C@H]1c2cc(c(cc2CCN1C)O3)O4 [Product 14] | 1.91 µM | 1.15 to 3.18 µM | 93% | 96% |
| COc1ccc2cc1Oc1ccc(cc1)C[C@H]1c3c(cc(OC)c4c3Oc3cc5c(cc3O4)CCN(CCC#N)[C@H]5C2)CCN1C [Product 22] | – | – | 60% | 64% |
| CCN(CC)CCCNC(=O)N1CCc2cc3c4cc2[C@@H]1Cc1ccc(OC)c(c1)Oc1ccc(cc1)C[C@H]1c2c(cc(OC)c(c2O4)O3)CCN1C [Product 50] | 2.06 µM | 1.28 to 3.31 µM | 69% | 91% |
| CCN(CC)CCCNC(=S)N1CCc2cc(OC)c3c4c2[C@@H]1Cc1ccc(cc1)Oc1cc(ccc1OC)C[C@H]1c2cc(c(cc2CCN1C)O3)O4 [Product 12] | 2.67 to 3.8 µM | – | 78% | 93% |
| COc1ccc2cc1Oc1ccc(cc1)C[C@H]1c3c(cc(OC)c4c3Oc3cc5c(cc3O4)CCN(C)[C@H]5C2)CCN1C#N [Product 15] | – | – | 46% | 50% |
| COc1ccc2cc1Oc1ccc(cc1)C[C@H]1c3c(cc(OC)c4c3Oc3cc5c(cc3O4)CCN(C)[C@H]5C2)CCN1CCCn1cnc2c(N)ncnc21 [Product 28] | – | – | 18% | 60% |
| COc1ccc2cc1Oc1ccc(cc1)CC1c3c(cc(OC)c4c3Oc3cc5c(cc3O4)CCN(C)[C@H]5C2)CCN1C(=O)C1CCC(CN2C(=O)C=CC2=O)CC1 (stereo partly shown) [Product 30] | 4.19 to 9.36 µM | – | 66% | 88% |
| COc1ccc2cc1Oc1ccc(cc1)C[C@H]1c3c(cc(OC)c4c3Oc3cc5c(cc3O4)CCN(C)[C@H]5C2)CCN1CCC#N [Product 16] | – | – | 56% | 77% |
| CNC(=S)N1CCc2cc3c4cc2[C@@H]1Cc1ccc(OC)c(c1)Oc1ccc(cc1)C[C@H]1c2c(cc(OC)c(c2O4)O3)CCN1C [Product 46] | – | – | 7% | 52% |
| COc1ccc2cc1Oc1ccc(cc1)C[C@H]1c3c(cc(OC)c4c3Oc3cc5c(cc3O4)CCN(C)[C@H]5C2)CCN1CC#N [Product 17] | – | – | 69% | 79% |
| COc1ccc2cc1Oc1ccc(cc1)C[C@H]1c3c(cc(OC)c4c3Oc3cc5c(cc3O4)CCN(C)[C@H]5C2)CCN1C(=O)OCCCCn1cnc2c(N)ncnc21 [Product 18] | – | – | 66% | 66% |
